The results in this text go back to PubChem BioAssay (NCI).

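96-well plates; 48 h exposure; 5 concentrations. Endpoints by linear interpolation between flanking doses. Not reached: highest tested concentration assigned. Abbreviation: GI50, concentration required for 50% inhibition of growth. The concentration for full growth arrest is given as TGI.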

What all share (assay): inhibition of tumour cell growth, NCI panel, 48 h
Assay [1] has as its system CAKI-1 renal.
Assay [2] relates to HL-60(TB) leukemia.
In assay [3] the test system is HT29 colon.
Assay [4] relates to M14 melanoma.
For assay [5], the system named is SF-268 CNS.
In assay [6] the test system is UO-31 renal.
The test system of assay [7] is IGROV1 ovarian.
Assay [8] concerns SW-620 colon.
The subject of assay [9] is OVCAR-4 ovarian.
Assay [10] concerns RXF 393 renal.

Regarding `N#C/C(=C\c1c(-c2ccccc2)[nH]c2ccccc12)S(=O)(=O)c1ccccc1`, the GI50 in assay [1] is 5.48 µM; in [2], 1.27 µM; in assay [3], 0.594 µM; in assay [4] it was 2.66 µM; in assay [5], 3.4 µM; in [6], 6.54 µM. The GI50 is 3.28 µM in [7], 0.544 µM in assay [8], 5.47 µM in assay [9] and 3.43 µM in assay [10]. For the same compound, the TGI in assay [1] was greater than 63 µM; in [2], 5.34 µM; in assay [3], greater than 41.5 µM; in assay [4], 38.2 µM; in [5], 20.5 µM; in assay [6], greater than 61.7 µM. Moreover, the TGI in assay [7] was 25.9 µM; in [8], 20.5 µM; in assay [9], greater than 100 µM; in assay [10], greater than 27.4 µM.
For `CN(C)c1ccc2c(c1)Sc1cc(N(C)C)ccc1N2C(=O)c1ccccc1`, the GI50 is 14.7 µM in assay [1]; 4.5 µM in [2]; 75 µM in assay [4]; 30.3 µM in assay [5]; 8.23 µM in assay [6]; 14.1 µM in [7]. Moreover, the results for the GI50 in assay [8], in [9] and in assay [10] were 71.6 µM, 44.6 µM and 28.7 µM, respectively. In addition, the TGI was greater than 100 µM in assay [1]; greater than 100 µM in [2]; greater than 100 µM in [4]; greater than 100 µM in assay [5]; greater than 100 µM in assay [6]; 77.6 µM in assay [7]. For the same compound, the TGI in assay [8], in [9] and in [10] was greater than 100 µM each time.
Take `O=C(O)C1(P(=O)(O)O)CC1`: the TGI was greater than 100 µM in [1]; greater than 100 µM in assay [2]; 76.4 µM in [4]; greater than 100 µM in assay [5]; greater than 100 µM in assay [6]; greater than 100 µM in [7]. For the same compound, the TGI in [8], in assay [9] and in [10] was greater than 100 µM in each case.
For the compound `CCOC(=O)C(C)(c1cn(C)c2ccccc12)c1cn(C)c2ccccc12`, the TGI in assay [1], in assay [2], in assay [3], in assay [4], in [6] and in [7] was greater than 100 µM in each case. For the same compound, the TGI in assay [8], in assay [9] and in assay [10] was greater than 100 µM in each case.
In the case of `CNC(=O)OCc1c(COC(=O)NC)c(C)n(-c2ccc(Br)cc2)c1C`, the TGI in assay [1] was greater than 100 µM; in assay [2], 31.9 µM; in assay [3], 22.4 µM; in assay [4], 32.5 µM; in [5], 34.5 µM; in assay [6], 19.5 µM. Also, the TGI in [7] is 19.1 µM; in [8] it was 27.3 µM; in assay [10], 19.8 µM.
On to `CCOC(=O)C1=C(NC)OC/C1=N\NC(=O)c1ccccc1O`, for which the TGI in assay [1] is greater than 100 µM; in assay [2], 71.4 µM; in assay [4], greater than 100 µM; in assay [5], greater than 100 µM; in [6] it was 26.1 µM; in assay [7], greater than 100 µM. The TGI in assay [8] was greater than 100 µM; in [9], 83.5 µM; in assay [10] it was greater than 100 µM.
With `CN(C)c1nc(=Nc2ccc3ccccc3c2)ss1`, the TGI in assay [1] is greater than 100 µM; in assay [2], 54.7 µM; in assay [4], greater than 100 µM; in assay [5], greater than 100 µM; in assay [6], greater than 100 µM; in [7] it was greater than 100 µM. The TGI in [8], in [9] and in assay [10] was greater than 100 µM in each case.
In the case of `COc1cccc(C=Nc2cc(C)ccn2)c1O.COc1cccc(C=Nc2cc(C)ccn2)c1O.[Cu]`, the GI50 in assay [1] is 20.5 µM; in assay [2] it was 1.75 µM; in assay [3], 23.1 µM; in assay [4], 12.7 µM; in assay [5], 14.6 µM; in [7], 21.4 µM. For the same compound, the GI50 is 18.3 µM in assay [8], 25.4 µM in assay [9] and 11.9 µM in [10]. The TGI in assay [1] amounted to 46 µM; in assay [2] it was 14.2 µM; in [3] it was 52.4 µM; in assay [4] it was 39.1 µM; in assay [5] it was 42.2 µM; in assay [7], 48.8 µM. Also, the TGI was 51.9 µM in assay [8], greater than 100 µM in [9] and 34.8 µM in assay [10].
As for `CCOC(=O)c1nc2ccc([N+](=O)[O-])cc2c2c1CCO2`, the TGI in assay [1], in assay [2], in assay [3], in assay [4], in assay [5] and in [7] was greater than 100 µM throughout. The TGI in [8], in assay [9] and in assay [10] was greater than 100 µM in each case.
For `Cn1c2c(cc(S(=O)(=O)c3ccccc3)c1=O)CCc1c-2cnn1-c1ccc(Cl)cc1`, the GI50 in assay [1] is 4.36 µM; in assay [2], greater than 100 µM; in [3], 3.31 µM; in assay [5], 2.24 µM; in assay [6], 1.87 µM; in assay [7], 3.22 µM. The figures for the GI50 in [9] and in assay [10] were 2.5 µM and 1.9 µM, respectively. In addition, the TGI is greater than 100 µM in assay [1]; greater than 100 µM in assay [2]; greater than 100 µM in assay [3]; 5.12 µM in assay [5]; 6.09 µM in assay [6]; greater than 100 µM in [7]. Also, the TGI came out at 6.71 µM in [9] and 3.71 µM in assay [10].
Regarding `Cc1c(C#N)c(=O)[nH]c(=O)n1CCN1CCN(C(=O)NCCCCCCNC(=O)N2CCN(CCn3c(C)c(C#N)c(=O)[nH]c3=O)CC2)CC1`, the TGI in [1], in assay [2], in assay [3], in assay [4], in assay [7] and in assay [8] was greater than 100 µM each time. Besides, the TGI in assay [9] and in assay [10] was greater than 100 µM throughout.
In the case of `COc1ccc(C2=C(Cl)c3cc(OC)c(OC)cc3C2Cl)cc1OC` (stereo not drawn), the TGI in [1] was found to be 35.2 µM; in assay [2], 35.3 µM; in [3], 29.8 µM; in assay [4] it was 34.9 µM; in [6], 31.3 µM; in assay [7] it was 44.2 µM. In addition, the TGI worked out at 34.5 µM in assay [8], 47.5 µM in assay [9] and 35.3 µM in assay [10].
